Assay [1] concerns A549. Kind of assay: Downregulation of TrxR1 protein expression in human A549 cells at 25 to 50 uM incubated for 72 hrs by Western blot analysis. It is filed as functional, cell-based. Conditions: dose 25-50 µM. In general terms: Immunoblotting shows a protein as a band on a membrane.
Assay [2] relates to A549. In words: Synergistic antiproliferative activity against human A549 cells assessed as cell death at 1.563 uM incubated for 72 hrs in presence of 6 uM cisplatin by MTT assay (reference value: 46%). It is filed as functional.
Assay [3] concerns A549. Kind of assay: Antiproliferative activity against human A549 cells assessed as cell death at 6.25 uM incubated for 72 hrs by MTT assay relative to control. The class given is functional.
Assay [4] concerns A549. In words: Antiproliferative activity against human A549 cells assessed as cell death at 100 uM incubated for 72 hrs by MTT assay relative to control. It is filed as functional. (Tetrazolium dyes change colour on reduction, which living cells bring about.)
Assay [5] has as its system A549. Kind of assay: Synergistic antiproliferative activity against human A549 cells assessed as combination index at 1.563 uM incubated for 72 hrs in presence of 12 uM cisplatin by Chou-Talalay method. The class given is functional.
Another assay deals with NRF2-MAFG (Homo sapiens) (UniProt Q16236+O15525). In words: Inhibition of human Nrf2/MafG heterodimerization expressed in Escherichia coli Rosetta (DE3) by Split-luciferase assay. Conditions: dose 1.56-100 µM.
Assay [6] deals with A549. Kind of assay: Synergistic antiproliferative activity against human A549 cells assessed as combination index at 6.25 uM incubated for 72 hrs in presence of 6 uM cisplatin by Chou-Talalay method. The class given is functional.
Assay [7] has as its system A549. In words: Synergistic antiproliferative activity against human A549 cells assessed as cell death at 3.125 uM incubated for 72 hrs in presence of 6 uM cisplatin by MTT assay (reference value: 46%). It is filed as functional.
In assay [8] the test system is A549. In words: Synergistic antiproliferative activity against human A549 cells assessed as cell death at 50 uM incubated for 72 hrs in presence of 6 uM cisplatin by MTT assay (reference value: 46%). The class given is functional.
Assay [9] deals with A549. In words: Synergistic antiproliferative activity against human A549 cells assessed as cell death at 100 uM incubated for 72 hrs in presence of 12 uM cisplatin by MTT assay (reference value: 66%). The class given is functional.
The test system of assay [10] is A549. Kind of assay: Synergistic antiproliferative activity against human A549 cells assessed as cell death at 50 uM incubated for 72 hrs in presence of 12 uM cisplatin by MTT assay (reference value: 66%). The class given is functional.
In assay [11] the test system is A549. In words: Synergistic antiproliferative activity against human A549 cells assessed as reduction in cell growth at 50 uM incubated for 3 days in presence of 6 uM cisplatin and measured every 2 hrs by IncuCyte live-cell imaging assay. It is filed as functional, cell-based. Conditions: time 3.0 day.
For assay [12], the system named is A549. Kind of assay: Synergistic antiproliferative activity against human A549 cells assessed as combination index at 25 uM incubated for 72 hrs in presence of 12 uM cisplatin by Chou-Talalay method. It is filed as functional.
In assay [13] the test system is A549. Kind of assay: Downregulation of GCLC mRNA level in human A549 cells at 50 uM incubated for 72 hrs by qPCR assay. The class given is functional, cell-based. On the technique in general: Real-time PCR tracks product formation cycle by cycle.
Assay [14] concerns A549. Kind of assay: Synergistic antiproliferative activity against human A549 cells assessed as combination index at 6.25 uM incubated for 72 hrs in presence of 12 uM cisplatin by Chou-Talalay method. It is filed as functional.
Assay [15] relates to A549. Kind of assay: Synergistic antiproliferative activity against human A549 cells assessed as combination index at 12.5 uM incubated for 72 hrs in presence of 6 uM cisplatin by Chou-Talalay method. It is filed as functional.
Assay [16] deals with A549. In words: Synergistic antiproliferative activity against human A549 cells assessed as combination index at 1.563 uM incubated for 72 hrs in presence of 6 uM cisplatin by Chou-Talalay method. The class given is functional.
Assay [17] concerns the target T1, Nuclear factor erythroid 2-related factor 2 (Homo sapiens) (UniProt Q16236).
T1 sequence (whole entry): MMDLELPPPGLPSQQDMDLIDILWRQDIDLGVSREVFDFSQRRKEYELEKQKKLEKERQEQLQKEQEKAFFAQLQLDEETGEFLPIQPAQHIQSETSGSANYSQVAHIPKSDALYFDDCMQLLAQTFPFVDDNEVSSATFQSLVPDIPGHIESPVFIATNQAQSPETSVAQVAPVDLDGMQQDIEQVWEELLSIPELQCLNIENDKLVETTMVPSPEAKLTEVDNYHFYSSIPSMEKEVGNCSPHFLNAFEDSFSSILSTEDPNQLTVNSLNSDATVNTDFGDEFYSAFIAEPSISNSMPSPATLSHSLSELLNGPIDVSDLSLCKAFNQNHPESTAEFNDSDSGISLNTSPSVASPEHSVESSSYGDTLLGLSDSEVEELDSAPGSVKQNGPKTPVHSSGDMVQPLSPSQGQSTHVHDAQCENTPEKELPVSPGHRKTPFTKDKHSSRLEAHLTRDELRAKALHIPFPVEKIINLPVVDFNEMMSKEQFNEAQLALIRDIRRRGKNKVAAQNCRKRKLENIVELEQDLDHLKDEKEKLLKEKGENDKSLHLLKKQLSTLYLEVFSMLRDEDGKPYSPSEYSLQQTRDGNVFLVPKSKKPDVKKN
In words: Inhibition of Nrf2 transcriptional activity in human A549 cells assessed as reduction in glutathione level at 50 to 100 uM incubated for 24 hrs by GSH-Glo glutathione assay. Conditions: dose 50-100 µM. The class given is cell-based.

Calls of active or inactive are those of the source. No cut-off for these calls is given here. Positions of bridges follow the written chain, without caps; N, C: chain ends. Non-standard residues stand in square brackets, D forms with d. Residues, ends and D or L forms follow the SMILES beside them. R5 = C=CCCC[C@@](C)(N)C(=O)O

As for `CC[C@H](C)[C@H](NC(C)=O)C(=O)N[C@H](C(=O)N[C@@H](CCC(=O)O)C(=O)N[C@@H](CC(C)C)C(=O)N[C@@H](CCC(=O)O)C(=O)N[C@]1(C)CCC/C=C\CCC[C@](C)(C(=O)N[C@@H](CC(C)C)C(=O)N[C@@H](CCCCN)C(=O)N[C@@H](CC(=O)O)C(=O)N[C@@H](CCC(=O)O)C(=O)N[C@@H](CCCCN)C(=O)N[C@@H](CCC(=O)O)C(N)=O)NC(=O)[C@H](CC(=O)O)NC(=O)[C@H](CC(C)C)NC(=O)[C@H](CC(=O)O)NC1=O)C(C)C` (Ac-IVELE[R5]DLD[R5]LKDEKE-NH2; staple (Z) 6-10), the result in the assay with A549 [1], in the assay with A549 [11] and with A549 [13] was Active. Moreover, the Activity in the assay on A549 [2] amounted to 50%; in the assay on A549 [3], 17%; in the assay with A549 [4], 37%; in the assay on A549 [7], 52%; in the assay with A549 [8], 74%; with A549 [9] it was 100%. In the assay on A549 [10], the Activity is 93%. Further, the CI in the assay on A549 [5] is reported as 0.96; in the assay with A549 [6], 0.67; in the assay on A549 [12], 0.35; in the assay on A549 [14], 0.57; in the assay with A549 [15] it was 0.57; in the assay on A549 [16], 0.89. Also, the inhibition entry on NRF2-MAFG (Homo sapiens) is “Dose-Dependent Effect”. For the same compound, the inhibition entry in assay [17] is “Active”.

These data come from ChEMBL document CHEMBL5338753, “Stapled Peptides as Direct Inhibitors of Nrf2-sMAF Transcription Factors” (J Med Chem, 2023).
